The subject of one assay is MCF-7 cells. The assay can be described thus: CellTiter-Glo Luminescent Cell Viability Assay, MCF-7. Format: cell-based, human. To be noted: for IC50: Homo sapiens, MCF7, 48 h, MCF-7 cells, 48 h, mean of three independent experiments. The protocol:
(§1) The in vitro anti-proliferative activities of all the novel synthesized compounds were evaluated against HepG2 cells and MCF-7 cells by CellTiter-Glo® Luminescent Cell Viability Assay, using paclitaxel (a clinically used drug) as a positive control. Emodin (1) and compound 2 were also included for comparison.
(§2) HepG2 cells and MCF-7 cells were purchased from American Type Culture Collection (ATCC, Manassas, VA, USA). Cells were cultured in T75 flask (430641, Corning, New York, NY, USA), supplemented with high-glucose DMEM medium (Dulbecco’s modified Eagle’s medium, 11965-092, Gibco, New York, NY, USA) containing 10% Fetal bovine serum (FBS) and 1% penicillin (100 units/mL)-streptomycin (100 µg/mL) in a humidified incubator at 37 °C under 5% CO2 and 95% relative humidity (RH) atmosphere. The cells were harvested for metabolomics experiments using cell scrapers.
(§3) HepG2 cells and MCF-7 cells in 40 µL DMEM supplemented with 10% FBS were seeded at a density of 500 cells/well in 384-well cell culture plate (3570, Corning), respectively. After 24 h, the medium was substituted with fresh medium containing various sample solutions in DMSO (0.5%, v/v) at a dose range of 0.14–100 µM with 3-fold serial dilutions, and cells were cultured for another 48 h. Cells were cultured in medium without samples but 0.5% DMSO served as a control. All measurements were determined in triplicate for each treatment. After the sample treatment for 48 h, 20 µL CellTiter-Glo (G7573, Promega, Fitchburg, WI, USA) was added to each well containing cells and the contents were mixed for 2 min on an orbital shaker to induce cell lysis. The plates were then incubated at room temperature for 20 min to stabilize the luminescent signal. The luminescence was recorded on an Envision 2014 (Perkin Elmer, Waltham, MA, UAS). The IC50 values represented the samples’ concentrations required to inhibit 50% of cell proliferation and were calculated from a calibration curve by linear regression using GraphPad Prism 7.0 software (GraphPad Software, San Diego, CA, USA).
A general note: Cellular ATP, detected with luciferase, serves as a proxy for viable cell number.

Another assay relates to HepG2 cells. As to the kind of experiment: CellTiter-Glo Luminescent Cell Viability Assay, HepG2. It is filed as cell-based, human. To be noted: for IC50: Homo sapiens, HepG2, 48 h, HepG2 cells, 48 h, mean of three independent experiments. As for the experimental part: as §1, §2, §3
Another assay concerns L02 cells. As to the kind of experiment: Cytotoxic activity against human normal liver cells (L02). Format: cell-based. To be noted: Homo sapiens, L02, human normal liver L02 cells.

The results in this text go back to publication PMC6429262, “Design and Synthesis of Novel Anti-Proliferative Emodin Derivatives and Studies on their Cell Cycle Arrest, Apoptosis Pathway and Migration” (Molecules, 2019).

The IC50 is the midpoint of a concentration-inhibition curve. A lower IC50 goes with inhibition by little substance.

As for `Cc1cc(O)c2c(c1)C(=O)c1cc(OCCOC(=O)[C@H](C)N)cc(O)c1C2=O` [Compound 3c, (S)-1-(2-(4,5-Dihydroxy-7-methyl-9,10-dioxo-9,10-dihydroanthracen-2-yloxy)ethoxy)-1-oxopropan-2-aminium 2,2,2-trifluoroacetate], the results for the IC50 in the assay on MCF-7 cells, in the assay with HepG2 cells and in the assay with L02 cells were 10.2 ± 0.96 µM, 9.52 ± 0.22 µM and 37.3 ± 0.78 µM, respectively.

On to `Cc1cc(O)c2c(c1)C(=O)c1cc(OCCCCCOC(=O)[C@@H](C)N)cc(O)c1C2=O` [Compound 7e, (R)-1-(5-(4,5-Dihydroxy-7-methyl-9,10-dioxo-9,10-dihydroanthracen-2-yloxy)pentyloxy)-1-oxopropan-2-aminium 2,2,2-trifluoroacetate], for which the concentration for half-maximal inhibition (IC50) with MCF-7 cells amounted to 9.11 ± 0.67 µM; with HepG2 cells it was 8.58 ± 0.77 µM; with L02 cells, 27.7 ± 0.54 µM.

Turning to `Cc1cc(O)c2c(c1)C(=O)c1cc(OCCCCCOC(=O)[C@H](C)N)cc(O)c1C2=O` [Compound 7f, (S)-1-(5-(4,5-Dihydroxy-7-methyl-9,10-dioxo-9,10-dihydroanthracen-2-yloxy)pentyloxy)-1-oxopropan-2-aminium 2,2,2-trifluoroacetate], the IC50 in the assay on MCF-7 cells stood at 15.8 ± 1.45 µM; in the assay on HepG2 cells, 10.6 ± 0.97 µM; with L02 cells, 24.3 ± 0.68 µM.

Regarding `Cc1cc(O)c2c(c1)C(=O)c1cc(O)cc(O)c1C2=O` [Emodin, 3-methyl-1,6,8-trihydroxyanthraquinone], the IC50 in the assay on MCF-7 cells amounted to 52.7 ± 2.22 µM; in the assay on HepG2 cells it was 43.9 ± 1.28 µM; with L02 cells it was 22.52 ± 0.18 µM. The “Selectivity Index MCF-7” value in the assay with MCF-7 cells (IC50 on normal cells (L02)/IC50 on cancer cells (MCF-7)) was determined as 0.43. The “Selectivity Index HepG2” value with HepG2 cells (IC50 on normal cells (L02)/IC50 on cancer cells (HepG2)) was 0.51.
